Measured values reported in patent US12023323B2, “Carbohydrate-binding small molecules with antiviral activity” (priority 2018, dated 2024).
Entries after “also recorded” stand apart in the source; their conditions may differ. Where a name gives a salt, the structure may show the parent alone. Read-outs that look alike come from different tables or passages of the source.

Tests used:
[1] = 1H NMR titration with octyloxy pyranoside β-Man; format: binding; conditions: NMR titrations in CD2Cl2 at 298 K, 1:1 binding
[2] = Selectivity across the five octyloxy pyranosides from NMR titrations; format: binding; conditions: for affinity for β-Glc over α-Man: times
[3] = tested on: ZIKV GFP RVPs; conditions: Vero cells
[4] = tested on: Vero cells; experiment: Cellular toxicity, CellTiter-Glo, Vero cells
[5] = tested on: ZIKV GFP RVPs; experiment: microbe, parasite or virus in culture; conditions: Zika virus, Vero
[6] = 1H NMR titration with octyloxy pyranoside α-Man; format: binding; conditions: for Ka (M^−1) with α-Man: NMR titrations in CD2Cl2 at 298 K, 1:1 binding
[7] = tested on: HeLa cells; experiment: Cellular toxicity, CellTiter-Glo, HeLa cells; conditions: read-out: TC50, Table 2, 72 h
[8] = tested on: ZIKV RVPs; experiment: microbe, parasite or virus in culture; format: cell-based, Zika virus
[9] = 1H NMR titration with octyloxy pyranoside β-Gal; format: binding; conditions: NMR titrations
[10] = 1H NMR titration with octyloxy pyranoside β-Glc; format: binding; conditions: for K1 (1:1 association constant) with β-Glc: CD2Cl2, 298 K; for affinity for β-Glc relative to SCR001: fold / ratio SCR:SCR001
[11] = 1H NMR titration with octyloxy pyranoside α-Glc; format: binding; conditions: NMR titrations
[12] = Cellular toxicity, CellTiter-Glo, Vero cells; conditions: African green monkey
[13] = tested on: HIV-1; conditions: cell culture; cited from earlier work
[14] = five octyloxy pyranosides, CD2Cl2, 298 K
[15] = Table 1, Vero cells, compounds 30 min before ZIKV RVPs, GFP+ cells 72 h postinfection
[16] = Table 3, Vero cells, ZIKV RVPs, average of at least two independent measurements
[17] = Table 3 study, Vero cells, ZIKV RVPs, unit μm [sic]

SMILES	glycan preference in words [2, 14]	anti-ZIKV activity in words ([3]; ZIKV RVPs)	IC50 [5, 15]	Ka (M^−1) with α-Man [6]	affinity for β-Glc over α-Man [2]	IC50 [5, 16]	IC50 [5, 17]	binding to β-Gal in words [9]	K1 (1:1 association constant) with β-Glc [10]	affinity for β-Glc relative to SCR001 [10]	binding to α-Glc in words [11]	therapeutic index (TC50/IC50) ([3]; Table 3)	CC50 at 72 h [12]	other results
c1coc(CNCc2cc(CNCc3ccco3)cc(-c3cc(CNCc4ccco4)cc(CNCc4ccco4)c3)c2)c1 [SCR002, 1,1′,1″,1′″-([1,1′-biphenyl]-3,3′,5,5′-tetrayl)tetrakis(N-(furan-2-ylmethyl)methanamine)]	preference for α-Man; also recorded: selective for α-Man	less potent	1.13 ± 0.23 µM	1400 M⁻¹										Ka (M^−1) with β-Man [1]: 54 M⁻¹; binding profile across the glycans in words [2, 14]: measurable binding with only β-Glc, β-Man and α-Man; also recorded: binds only β-Glc, β-Man, and α-Man; CC50 ([4]; read-out: TC50, Table 1, 72 h, CellTiter-Glo): 5.43 µM; CC50 [7]: 2.51 µM; anti-ZIKV activity in words ([8]; HeLa cells, ZIKV RVPs): more potent than SCR001; IC50 ([8]; Zika virus, HeLa): 0.35 ± 0.09 µM
NCc1cc(CN)cc(-c2cc(CN)cc(CN)c2)c1 [Compound 2, [1,1′-biphenyl]-3,3′,5,5′-tetrayltetramethanamine tetrahydrochloride]			> 100 µM											
c1cncc(CNCc2cc(CNCc3cccnc3)cc(-c3cc(CNCc4cccnc4)cc(CNCc4cccnc4)c3)c2)c1 [SCR021, 1,1′,1″,1′″-([1,1′-biphenyl]-3,3′,5,5′-tetrayl)tetrakis(N-(pyridin-3-ylmethyl)methanamine)]	prefer β-Glc			490 M⁻¹	67	> 100 µM	> 100 µM	no substantial binding	2.7 M⁻¹	25	no substantial binding			K2 (1:2 SCR·glycan association constant) with β-Glc ([10]; 1:2 SCR·glycan complexes): 12000 M⁻¹; cumulative association constant β with β-Glc ([10]; 1:2 SCR·glycan complexes): 3.3×10^4 M^−2
c1ccc(CNCc2cc(CNCc3ccccn3)cc(-c3cc(CNCc4ccccn4)cc(CNCc4ccccn4)c3)c2)nc1 [SCR020, 1,1′,1″,1′″-([1,1′-biphenyl]-3,3′,5,5′-tetrayl)tetrakis(N-(pyridin-2-ylmethyl)methanamine)]	uniquely bind α-Man; also recorded: specific for α-Man	weaker inhibition				< 20 µM						9	178 ± 99 µM	IC50 ([3]; Table 3, ZIKV RVPs, average of at least two independent measurements): 19.9 ± 14.4 µM; K2 (1:2 SCR·glycan association constant) with α-Man ([6]; 1:2 SCR·glycan binding model): 11 M⁻¹; cumulative association constant β with α-Man ([6]; 1:2 SCR·glycan binding model): 2.8×10^5 M^−2; cumulative association constant β with α-Man ([6]; 1:2 SCR·glycan, unit M^2): 2.8×10^5 M^2; K1 (1:1 association constant) with α-Man ([6]; CD2Cl2, 298 K): 260 M⁻¹; affinity for α-Man relative to SCR001 ([6]; fold / ratio SCR:SCR001): 200; change in affinity for α-Man, SCR020 and SCR021 ([6]; times): 570
COc1cc(O)c2c(c1)C(=O)c1c(cc3c(c1O)-c1c(cc(C)c(C(=O)N[C@H](C)C(=O)O)c1O)[C@H](O[C@@H]1O[C@H](C)[C@H](O)[C@H](O[C@@H]4OC[C@@H](O)[C@H](O)[C@H]4O)[C@H]1O)[C@H]3O)C2=O [benanomicin A]														50% effective concentration against HIV-1 [13]: micromolar concentration range
Oc1ccccc1CNCc1cc(CNCc2ccccc2O)cc(-c2cc(CNCc3ccccc3O)cc(CNCc3ccccc3O)c2)c1 [SCR022, 2,2′,2″,2′″-((([1,1′-biphenyl]-3,3′,5,5′-tetrayltetrakis(methylene))tetrakis(azanediyl))tetrakis(methylene))tetraphenol]	prefer β-Glc	potent anti-ZIKV activity		280 M⁻¹	290	2.5 ± 0.6 µM	< 5 µM	no substantial binding	120 M⁻¹	62	no substantial binding	2	4.6 ± 1.1 µM	cellular toxicity in words [4]: toxic to Vero cells; IC50 ([5]; read-out: IC50 (strong antiviral activity), Vero cells, ZIKV RVPs): < 5 µM; K2 (2:1 SCR·glycan association constant) with β-Glc ([10]; 2:1 SCR·glycan complexes): 690 M⁻¹; cumulative association constant β with β-Glc ([10]; 2:1 SCR·glycan complexes): 8.1×10^4 M^−2
